smiles,measurement,setting,value
O=C1CCC(c2ccccc2)=NN1,solubility (mole fraction),"in DMSO, 293.2 K",0.637
same,solubility (mole fraction),"in DMSO, 298.2 K",0.647
same,solubility (mole fraction),"in DMSO, 303.2 K",0.658
same,solubility (mole fraction),"in DMSO, 308.2 K",0.668
same,solubility (mole fraction),"in DMSO, 313.2 K",0.677
same,solubility (mole fraction),"in PEG-400, 293.2 K",0.0585
same,solubility (mole fraction),"in PEG-400, 298.2 K",0.0646
same,solubility (mole fraction),"in PEG-400, 303.2 K",0.0709
same,solubility (mole fraction),"in PEG-400, 308.2 K",0.078
same,solubility (mole fraction),"in PEG-400, 313.2 K",0.0847
same,solubility (mole fraction),"in ethanol, 293.2 K",0.00407
same,solubility (mole fraction),"in ethanol, 298.2 K",0.00466
same,solubility (mole fraction),"in ethanol, 303.2 K",0.00529
same,solubility (mole fraction),"in ethanol, 308.2 K",0.00607
same,solubility (mole fraction),"in ethanol, 313.2 K",0.00696
same,solubility (mole fraction),"in ethyl acetate, 293.2 K",0.00878
same,solubility (mole fraction),"in ethyl acetate, 298.2 K",0.00994
same,solubility (mole fraction),"in ethyl acetate, 303.2 K",0.0111
same,solubility (mole fraction),"in ethyl acetate, 308.2 K",0.0128
same,solubility (mole fraction),"in ethyl acetate, 313.2 K",0.0145
same,solubility (mole fraction),"in ethylene glycol, 293.2 K",0.0074
same,solubility (mole fraction),"in ethylene glycol, 298.2 K",0.00836
same,solubility (mole fraction),"in ethylene glycol, 303.2 K",0.00921
same,solubility (mole fraction),"in ethylene glycol, 308.2 K",0.0101
same,solubility (mole fraction),"in ethylene glycol, 313.2 K",0.0109
same,solubility (mole fraction),"in isopropanol, 293.2 K",0.0031
same,solubility (mole fraction),"in isopropanol, 298.2 K",0.00378
same,solubility (mole fraction),"in isopropanol, 303.2 K",0.0046
same,solubility (mole fraction),"in isopropanol, 308.2 K",0.00555
same,solubility (mole fraction),"in isopropanol, 313.2 K",0.00651
same,solubility (mole fraction),"in n-butanol, 293.2 K",0.00474
same,solubility (mole fraction),"in n-butanol, 298.2 K",0.0053
same,solubility (mole fraction),"in n-butanol, 303.2 K",0.00601
same,solubility (mole fraction),"in n-butanol, 308.2 K",0.0067
same,solubility (mole fraction),"in n-butanol, 313.2 K",0.00768
same,solubility (mole fraction),"in propylene glycol, 293.2 K",0.00654
same,solubility (mole fraction),"in propylene glycol, 298.2 K",0.00732
same,solubility (mole fraction),"in propylene glycol, 303.2 K",0.00846
same,solubility (mole fraction),"in propylene glycol, 308.2 K",0.00951
same,solubility (mole fraction),"in propylene glycol, 313.2 K",0.0103
same,solubility (mole fraction),"in sec-butanol, 293.2 K",0.00512
same,solubility (mole fraction),"in sec-butanol, 298.2 K",0.00555
same,solubility (mole fraction),"in sec-butanol, 303.2 K",0.00618
same,solubility (mole fraction),"in sec-butanol, 308.2 K",0.00687
same,solubility (mole fraction),"in sec-butanol, 313.2 K",0.00778
same,solubility (mole fraction),"in transcutol, 293.2 K",0.423
same,solubility (mole fraction),"in transcutol, 298.2 K",0.451
same,solubility (mole fraction),"in transcutol, 303.2 K",0.476
same,solubility (mole fraction),"in transcutol, 308.2 K",0.502
same,solubility (mole fraction),"in transcutol, 313.2 K",0.524
same,solubility (mole fraction),"in water, 293.2 K",7.24e-07
same,solubility (mole fraction),"in water, 298.2 K",9.18e-07
same,solubility (mole fraction),"in water, 303.2 K",1.13e-06
same,solubility (mole fraction),"in water, 308.2 K",1.37e-06
same,solubility (mole fraction),"in water, 313.2 K",1.61e-06

# Reference: BigSolDB 2.1
